Experimental data published in article PMC5824847, “Linear peptidomimetics as potent antagonists of Staphylococcus aureus agr quorum sensing” (Scientific Reports, 2018).
Values after ≈ are worked out from the molar mass of the structure shown. “Also recorded” adds a separate entry of the source. Square brackets hold non-standard residues; d marks the D form. Peptide text beside a SMILES is read from it. N(1-naphthylmethyl)Gly = O=C(O)CNCc1cccc2ccccc12; N(4-MeBn)Gly = Cc1ccc(CNCC(=O)O)cc1; NBuGly = CCCCNCC(=O)O

How the values were obtained:
[1] = test system: S. aureus virulence gene expression (agr; RNAIII, hla, spa reporters); assay: Agar diffusion reporter assay, overall activity on the three reporters; type: cell-based, Staphylococcus aureus; conditions: TSA plates with RNAIII::lacZ, hla::lacZ and spa::lacZ reporters, 10 μg/well (500 μg/ml; 20 μl/well)
Experimental: The reporter assay was conducted as described by Nielsen et al. (2010) using three different lacZ transcriptional reporter strains, PC203, PC322 and SH101F[37]. Test compounds dissolved in H2O or DMSO was added to agar wells at indicated concentrations and solvent only was included as a control. Incubation until blue color appeared in plates varied from 9 h to 48 h. The ability of the peptidomimetics to influence virulence gene expression was observed based on the color change around the wells; a white halo represents downregulation of virulence gene expression, while a blue halo represents upregulation of expression, with the size of the halo being indicative of the degree of interference.

[2] = RP-HPLC retention time (hydrophobicity); type: physicochemical; conditions: analytical RP-HPLC; used by the paper as a measure of hydrophobicity
Experimental: The synthesis of the peptidomimetics was performed as described by Oddo et al. (2015)[51]. According to this, a combination of Fmoc Solid Phase Peptide Synthesis (SPPS) and sub-monomer approach was applied. After the synthesis, the peptidomimetics were purified (>95%) by preparative HPLC and the purity was determined through analytical HPLC. Moreover, the MALDI-TOF-MS was used in order to verify the identity of the peptidomimetics.

[3] = test system: 8325-4 and RN10829 WT S. aureus strains; assay: Minimum Inhibitory Concentration (MIC); type: cell-based, Staphylococcus aureus; conditions: TSB, two-fold dilution series 4 to 256 μg/ml, approx. 5 × 10^5 CFU/ml, 24 hours at 37 °C; lowest concentration with no growth; values identical for 8325-4 and RN10829 WT
Experimental: Overnight cultures (24 h, 37 °C, 200 rpm in TSB) of S. aureus strains were diluted 5000X in fresh TSB and was aliquoted into 96-well microtiter plates with two-fold dilution series of the peptidomimetics ranging from 4 μg/ml to 256 μg/ml (final concentration) to reach an initial cell density of approximately 5 × 10^5 CFU/ml. DMSO was used as control and the plate was incubated for 24 hours at 37 °C. The MICs of the peptidomimetics were recorded as the lowest concentration for which no bacterial growth was observed.
Supplementary Table S2: Minimum Inhibitory Concentration (MIC) of the peptidomimetics tested on 8325-4 and RN10829 WT S. aureus strains (MIC values were identical for both strains, thus are represented here in one column).

CCCCN(CC(=O)N(CC(=O)NCC(N)=O)Cc1cccc2ccccc12)C(=O)[C@H](CCCCN)NC(=O)[C@H](CCCCN)NC(=O)CN(Cc1ccc(C)cc1)C(=O)CNCc1cccc2ccccc12 [G7] (H-[N(1-naphthylmethyl)Gly][N(4-MeBn)Gly]KK[NBuGly][N(1-naphthylmethyl)Gly]G-NH2)
Activity on virulence gene expression (agr modulatory activity), overall [1]: increased activity; also recorded: greatly improved agr-inhibitory activity compared to D3 | Rt (RP-HPLC retention time) [2]: 17.5 min | MIC [3]: 64 µg/mL (≈ 64 µM)
